Experimental data taken from US6340741B1, “Potent genetic switch allowing regulated gene expression in eukaryotic cells” (University of Lausanne, priority 1998, dated 2002).

System: p5xGTTI-Luc+ luciferase reporter in BHK 21 cells
Assay: Repression of luciferase reporter activated by constitutive GAL4-VP16, transient transfection of BHK 21 cells (Example 2)
Format: cell-based, hamster
Conditions: 100 ng/ml dox
Experimental: Baby hamster kidney 21 (BHK 21) cells were cultivated in DMEM (Gibco-BRL) supplemented with 10% FCS (Gibco-BRL). For transfectiors, cells were seeded in 24 well plates at about 40% confluency and allowed to attach to the surface. After washing with PBS, cells were exposed to the transfection mix for 4 hours. Thereafter, the transfection mix was replaced by medium which contained, where indicated, 100 ng/ml doxycycline hydrochloride (Sigma #D9891). Generally, medium was replaced every 24 hours and cells were harvested 48 hours post-transfection.
For luciferase and β-galactosidase measurements, cell extracts were prepared as follows. […] After a delay of 2 sec light emission was measured for 2 sec.
Colorimetric determination of β-galactosidase activity was performed by adding 150 μl CPRG buffer (60 mM Na2HPO4 7 H2O, 40 mM NaH2PO4, 10 mM KCl, 1 mM MgSO4, 50 mM β-mercaptoethanol) and 20 μl CPRG solution (Boehringer Mannheim #884308, 4 mg/ml in H2O) to the remaining 30 μl cell extract in the 96 well plate. […] Absorbance was measured at 575 nm in a plate reader (Spectramax 340, Molecular Devices) and samples were normalized to wells in which lysis buffer was assayed.
Relative light units were calculated by normalizing luciferase for β-galactosidase activity. […]

C[C@H]1c2cccc(O)c2C(=O)C2=C(O)[C@]3(O)C(=O)C(C(N)=O)=C(O)[C@@H](N(C)C)[C@@H]3[C@@H](O)[C@@H]21.Cl [dox, doxycycline hydrochloride]
effect of addition of the dox ligand on repression: abolished the repression
